Test results reported in ChEMBL document CHEMBL5385860, “Antiproliferative, antiangiogenic and apoptotic effect of new hybrids of quinazoline-4(3H)-ones and sulfachloropyridazine” (Eur J Med Chem, 2023).

How the values were obtained:
SNB-75 [1] = experiment: Cytotoxicity against human SNB-75 cells assessed as growth inhibition at 10 uM relative to control; format: functional; conditions: read-out: GI
CAKI-1 = experiment: Cytotoxicity against human CAKI-1 cells assessed as growth inhibition at 10 uM relative to control; format: functional; conditions: read-out: GI
SR = experiment: Cytotoxicity against human SR cells assessed as growth inhibition at 10 uM relative to control; format: functional; conditions: read-out: GI
MDA-MB-468 = experiment: Cytotoxicity against human MDA-MB-468 cells assessed as growth inhibition at 10 uM relative to control; format: functional; conditions: read-out: GI
T47D = experiment: Cytotoxicity against human T47D cells assessed as growth inhibition at 10 uM relative to control; format: functional; conditions: read-out: GI
786-0 = experiment: Cytotoxicity against human 786-0 cells assessed as growth inhibition at 10 uM relative to control; format: functional; conditions: read-out: GI
MOLT-4 = experiment: Cytotoxicity against human MOLT-4 cells assessed as growth inhibition at 10 uM relative to control; format: functional; conditions: read-out: GI
RPMI-8226 = experiment: Cytotoxicity against human RPMI-8226 cells assessed as growth inhibition at 10 uM relative to control; format: functional; conditions: read-out: GI
UACC-62 = experiment: Cytotoxicity against human UACC-62 cells assessed as growth inhibition at 10 uM relative to control; format: functional; conditions: read-out: GI
RXF 393 = experiment: Cytotoxicity against human RXF 393 cells assessed as growth inhibition at 10 uM relative to control; format: functional; conditions: read-out: GI
NCI-H522 = experiment: Cytotoxicity against human NCI-H522 cells assessed as growth inhibition at 10 uM relative to control; format: functional; conditions: read-out: GI
UO-31 [2] = experiment: Cytotoxicity against human UO-31 cells assessed as growth inhibition at 10 uM relative to control; format: functional; conditions: read-out: GI
A498 = experiment: Cytotoxicity against human A498 cells assessed as growth inhibition at 10 uM relative to control; format: functional; conditions: read-out: GI
MCF7 = experiment: Cytotoxicity against human MCF7 cells assessed as growth inhibition at 10 uM relative to control; format: functional; conditions: read-out: GI
A549 = experiment: Cytotoxicity against human A549 cells assessed as growth inhibition at 10 uM relative to control; format: functional; conditions: read-out: GI
CCRF-CEM = experiment: Cytotoxicity against human CCRF-CEM cells assessed as growth inhibition at 10 uM relative to control; format: functional; conditions: read-out: GI
SF-268 = experiment: Cytotoxicity against human SF-268 cells assessed as growth inhibition at 10 uM relative to control; format: functional; conditions: read-out: GI
MDA-MB-231 = experiment: Cytotoxicity against human MDA-MB-231 cells assessed as growth inhibition at 10 uM relative to control; format: functional; conditions: read-out: GI
K562 = experiment: Cytotoxicity against human K562 cells assessed as growth inhibition at 10 uM relative to control; format: functional; conditions: read-out: GI
Hs-578T = experiment: Cytotoxicity against human Hs-578T cells assessed as growth inhibition at 10 uM relative to control; format: functional; conditions: read-out: GI
UO-31 [3] = experiment: cells; conditions: Homo sapiens, UO-31, light or radiation study
UO-31 [4] = experiment: cells; conditions: Homo sapiens, UO-31, 24 h
SK-OV-3 = experiment: Cytotoxicity against human SK-OV-3 cells assessed as growth inhibition at 10 uM relative to control; format: functional; conditions: read-out: GI
HOP-92 = experiment: Cytotoxicity against human HOP-92 cells assessed as growth inhibition at 10 uM relative to control; format: functional; conditions: read-out: GI
IGROV-1 = experiment: Cytotoxicity against human IGROV-1 cells assessed as growth inhibition at 10 uM relative to control; format: functional; conditions: read-out: GI
KM12 = experiment: Cytotoxicity against human KM12 cells assessed as growth inhibition at 10 uM relative to control; format: functional; conditions: read-out: GI
BT-549 = experiment: Cytotoxicity against human BT-549 cells assessed as growth inhibition at 10 uM relative to control; format: functional; conditions: read-out: GI
LOX IMVI = experiment: Cytotoxicity against human LOX IMVI cells assessed as growth inhibition at 10 uM relative to control; format: functional; conditions: read-out: GI
EKVX = experiment: Cytotoxicity against human EKVX cells assessed as growth inhibition at 10 uM relative to control; format: functional; conditions: read-out: GI
HT-29 = experiment: Cytotoxicity against human HT-29 cells assessed as growth inhibition at 10 uM relative to control; format: functional; conditions: read-out: GI
UO-31 [5] = experiment: Induction of cell cycle arrest in human UO-31 cells assessed as cell aggregates at 1.67 uM measured after 24 hrs by PI staining based flow cytometry analysis (reference value: 1.82%); format: functional
[6] = biological target: Vascular endothelial growth factor A, long form (Homo sapiens) (UniProt P15692); experiment: Inhibition of VEGF-mediated cell migration in HUVEC cells assessed as wound closure at 10 ug/ml measured after 72 hrs by scratch-wound healing assay; format: cell-based; parameters: scale not given: the % may be the effect or the level left; conditions: dose 10.0 µg/ml
[7] = Inhibition of PDGFR (unknown origin) incubated for 60 mins in presence of ATP by ADP-Glo kinase assay; parameters: species or system Homo sapiens
UO-31 [8] = experiment: Induction of apoptosis in human UO-31 cells assessed as Bax protein level by ELISA (reference value: 70.11 +/- 7.45 pg/ml); format: functional
UO-31 [9] = experiment: Induction of apoptosis in human UO-31 cells assessed as early apoptotic cells at IC50 by Annexin V-FITC/PI staining based flow cytometry analysis (reference value: 0.61%); format: functional
UO-31 [10] = experiment: Induction of apoptosis in human UO-31 cells assessed as late apoptotic cells at IC50 by Annexin V-FITC/PI staining based flow cytometry analysis (reference value: […]); format: functional
UO-31 [11] = experiment: Induction of apoptosis in human UO-31 cells assessed as Bcl-2 protein level by ELISA (reference value: 12.19 +/- 0.64 ng/ml); format: functional
UO-31 [12] = experiment: Induction of apoptosis in human UO-31 cells assessed as necrotic cells at IC50 by Annexin V-FITC/PI staining based flow cytometry analysis (reference value: 1.19%); format: functional
UO-31 [13] = experiment: Induction of cell cycle arrest in human UO-31 cells assessed as accumulation of cells in G2/M phase at 3.61 uM measured after 24 hrs by PI staining based flow cytometry analysis (reference value: 14.32%); format: functional
UO-31 [14] = experiment: Induction of cell cycle arrest in human UO-31 cells assessed as cell aggregates at 3.61 uM measured after 24 hrs by PI staining based flow cytometry analysis (reference value: 1.82%); format: functional
UO-31 [15] = experiment: Induction of cell cycle arrest in human UO-31 cells assessed as accumulation of cells in S phase at 3.61 uM measured after 24 hrs by PI staining based flow cytometry analysis (reference value: 36.42%); format: functional
UO-31 [16] = format: functional, Homo sapiens; conditions: dose 3.61 µM; time 24 hrs
UO-31 [17] = experiment: Induction of cell cycle arrest in human UO-31 cells assessed as accumulation of cells in G0-G1 phase at 3.61 uM measured after 24 hrs by PI staining based flow cytometry analysis (reference value: 49.26%); format: functional
M14 [18] = experiment: cells; conditions: Homo sapiens, M14, light or radiation study
SNB-75 [19] = experiment: cells; conditions: Homo sapiens, SNB-75, 24 h
UO-31 [20] = experiment: Induction of cell cycle arrest in human UO-31 cells assessed as cell debris at 3.61 uM measured after 24 hrs by PI staining based flow cytometry analysis (reference value: 2.19%); format: functional
UO-31 [21] = experiment: Induction of apoptosis in human UO-31 cells assessed as fold decrease in Bcl-2 protein level by ELISA relative to control; format: functional
M14 [22] = experiment: cells; conditions: Homo sapiens, M14, 24 h
UO-31 [23] = experiment: Induction of apoptosis in human UO-31 cells assessed as fold increase in Bax protein level by ELISA relative to control; format: functional
UO-31 [24] = experiment: Induction of apoptosis in human UO-31 cells assessed as increase in caspase-3 level by measuring optical density by Western blot densitometry analysis (reference value: 0.095); format: functional
[25] = Cytotoxicity against human RPTEC cells assessed as inhibition of cell growth incubated for 24 hrs by MTT assay; format: toxicity, cell-based
HCT-116 = experiment: cells; conditions: Homo sapiens, HCT-116, 24 h

Chain of Vascular endothelial growth factor A, long form (Homo sapiens) (P15692 whole entry): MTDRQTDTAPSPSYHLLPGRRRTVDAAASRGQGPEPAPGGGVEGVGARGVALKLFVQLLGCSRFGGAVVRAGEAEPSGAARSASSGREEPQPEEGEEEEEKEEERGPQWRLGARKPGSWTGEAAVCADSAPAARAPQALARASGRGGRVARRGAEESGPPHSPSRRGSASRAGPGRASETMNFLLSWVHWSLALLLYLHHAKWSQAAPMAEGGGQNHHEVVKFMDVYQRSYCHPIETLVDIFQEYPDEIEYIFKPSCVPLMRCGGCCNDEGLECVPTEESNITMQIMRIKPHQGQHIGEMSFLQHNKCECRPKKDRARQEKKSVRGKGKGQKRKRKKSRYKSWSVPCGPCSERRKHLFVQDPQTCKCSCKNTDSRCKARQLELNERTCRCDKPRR

Row | Structure (SMILES) | inhibition of growth at 10 µM (SR) | inhibition of growth at 10 µM (MDA-MB-468) | inhibition of growth at 10 µM (T47D) | inhibition of growth at 10 µM (786-0) | inhibition of growth at 10 µM (MOLT-4) | inhibition of growth at 10 µM (RPMI-8226) | inhibition of growth at 10 µM (UACC-62) | inhibition of growth at 10 µM (NCI-H522) | inhibition of growth at 10 µM (UO-31 [2]) | inhibition of growth at 10 µM (A498) | inhibition of growth at 10 µM (MCF7) | IC50 (UO-31 [3]) | IC50 (UO-31 [4]) | Activity (UO-31 [8]) | Activity (UO-31 [9]) | Activity (UO-31 [10]) | Activity (UO-31 [11]) | Activity (UO-31 [12]) | further results
1 | O=C(CSc1nc2ccccc2c(=O)n1-c1ccc(S(=O)(=O)Nc2ccc(Cl)nn2)cc1)NCc1ccccc1 | 12% | 16% | 24% | 10% | 12% | 21% | 18% | 14% | 12% | 18% | 11% |  |  |  |  |  |  |  | inhibition of growth at 10 µM (SNB-75 [1]): 12%; inhibition of growth at 10 µM (CAKI-1): 14%; inhibition of growth at 10 µM (RXF 393): 18%; inhibition of growth at 10 µM (A549): 11%
2 | O=C(CSc1nc2ccccc2c(=O)n1-c1ccc(S(=O)(=O)Nc2ccc(Cl)nn2)cc1)NCCc1ccccc1 | 21% | 10% | 27% | 16% | 20% | 11% | 20% | 22% | 29% | 37% | 24% | 3.49 µM | 3.14 µM |  |  |  |  |  | inhibition of growth at 10 µM (CCRF-CEM): 14%; inhibition of growth at 10 µM (SF-268): 13%; inhibition of growth at 10 µM (MDA-MB-231): 20%; inhibition of growth at 10 µM (K562): 11%; inhibition of growth at 10 µM (Hs-578T): 23%; inhibition of growth at 10 µM (SK-OV-3): 20%; inhibition of growth at 10 µM (HOP-92): 12%; inhibition of growth at 10 µM (IGROV-1): 15%; inhibition of growth at 10 µM (KM12): 14%; inhibition of growth at 10 µM (BT-549): 10%; inhibition of growth at 10 µM (LOX IMVI): 14%; inhibition of growth at 10 µM (EKVX): 24%; inhibition of growth at 10 µM (HT-29): 11%
3 | CNC(=O)c1cc(Oc2ccc(NC(=O)Nc3ccc(Cl)c(C(F)(F)F)c3)cc2)ccn1 [SORAFENIB] |  |  |  |  |  |  |  |  |  |  |  |  |  | 409.2 pg/mL | 19.42% | 31.17% | 3.898 ng/mL | 4.72% | Activity (UO-31 [5]): 1.47%; Activity [6]: 46.7%; IC50 [7]: 0.04 µM
4 | COc1cccc2c1C(=O)c1c(O)c3c(c(O)c1C2=O)C[C@@](O)(C(=O)CO)C[C@@H]3O[C@H]1C[C@H](N)[C@H](O)[C@H](C)O1 [DOXORUBICIN] |  |  |  |  |  |  |  |  |  |  |  | 3.01 µM | 3.61 µM | 392.1 pg/mL | 14.13% | 26.5% | 4.396 ng/mL | 11.03% | Activity (UO-31 [13]): 7.91%; Activity (UO-31 [14]): 2.13%; Activity (UO-31 [15]): 48.62%; Activity (UO-31 [16]): 51.66%; Activity (UO-31 [17]): 43.47%; IC50 (M14 [18]): 2.13 µM; IC50 (SNB-75 [19]): 5.82 µM; Activity (UO-31 [20]): 1.66%; fold change (FC) (UO-31 [21]): 0.36; IC50 (M14 [22]): 5.11 µM; fold change (FC) (UO-31 [23]): 5.59; OD (UO-31 [24]): 0.844; IC50 at 24 h [25]: 12.5 µM; IC50 (HCT-116): 0.49 µM
